From ChEMBL document CHEMBL1154936, “Synthesis, SAR and intramolecular hydrogen bonding pattern of 1,3,5-trisubstituted 4,5-dihydropyrazoles as potent cannabinoid CB(1) receptor antagonists” (Bioorg Med Chem Lett, 2010)

Key:
[1] = biological target: T1, Cannabinoid receptor 1 (Homo sapiens, UniProt P21554); assay: Displacement of [3H]CP-55940 from human cannabinoid CB1 receptor expressed in CHO cells; format: cell-based
[2] = biological target: T1, Cannabinoid receptor 1; assay: Antagonist activity at human cannabinoid CB1 receptor expressed in CHO cells assessed as inhibition of CP-55940-induced [3H]arachidonic acid release; format: functional, cell-based; conditions: read-out: pA2 (converted)
[3] = biological target: Cannabinoid receptor 2 (Homo sapiens, UniProt P34972); assay: Displacement of [3H]CP-55940 from human cannabinoid CB2 receptor expressed in CHO cells; format: cell-based
Chain of Cannabinoid receptor 2 (P34972 whole entry): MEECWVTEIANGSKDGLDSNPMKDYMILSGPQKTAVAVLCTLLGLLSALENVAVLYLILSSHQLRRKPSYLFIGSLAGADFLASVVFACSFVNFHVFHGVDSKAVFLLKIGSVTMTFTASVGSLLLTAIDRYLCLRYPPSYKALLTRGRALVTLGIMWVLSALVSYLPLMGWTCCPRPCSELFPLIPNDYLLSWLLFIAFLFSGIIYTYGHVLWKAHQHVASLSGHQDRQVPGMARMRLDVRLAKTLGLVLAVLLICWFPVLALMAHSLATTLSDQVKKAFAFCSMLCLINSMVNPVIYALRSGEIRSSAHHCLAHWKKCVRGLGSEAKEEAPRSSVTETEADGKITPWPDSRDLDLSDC

[4] = test system: Rattus norvegicus; assay: Inhibition of CP-55940-induced hypotension in po dosed rat; format: functional; conditions: read-out: ID50 (the source's name)

T1 sequence (P21554 whole entry): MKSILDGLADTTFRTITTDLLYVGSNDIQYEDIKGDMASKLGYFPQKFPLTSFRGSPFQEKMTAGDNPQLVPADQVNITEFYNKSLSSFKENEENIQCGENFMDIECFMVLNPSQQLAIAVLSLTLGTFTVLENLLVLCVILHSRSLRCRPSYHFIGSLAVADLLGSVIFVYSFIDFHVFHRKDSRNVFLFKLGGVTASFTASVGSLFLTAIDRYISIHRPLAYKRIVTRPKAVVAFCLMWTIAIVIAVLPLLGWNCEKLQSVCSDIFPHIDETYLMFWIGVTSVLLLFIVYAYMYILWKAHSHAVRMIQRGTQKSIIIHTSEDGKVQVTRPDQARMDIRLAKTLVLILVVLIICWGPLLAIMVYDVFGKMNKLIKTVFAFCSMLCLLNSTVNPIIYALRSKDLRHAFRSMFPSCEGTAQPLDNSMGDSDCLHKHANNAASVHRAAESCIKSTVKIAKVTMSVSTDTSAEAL

Structure (SMILES)	Ki [1] [nM]	Kb [2] [nM]	Ki [3] [nM]	ED50 [4] [mg/kg]
CNC(=NS(=O)(=O)N1CCC(C(F)(F)F)CC1)C1=NN(c2ccc(Cl)cc2)[C@H](c2ccccc2)C1	58	6.31	> 1000	
CNC(=NS(=O)(=O)N1CCC(C(F)(F)F)CC1)N1C[C@H](c2ccccc2)C(c2ccc(Cl)cc2)=N1	4.7	0.251	305	2
CN/C(=N\S(=O)(=O)N1CCC(C(F)(F)F)CC1)C1=NN(c2ccc(Cl)cc2)C(c2ccccc2)C1 (stereo not given)	7.6	0.398	606	
CN/C(=N\S(=O)(=O)c1ccc(Cl)cc1)N1C[C@H](c2ccccc2)C(c2ccc(Cl)cc2)=N1 [IBIPINABANT]				5.5
CN/C(=N\S(=O)(=O)c1ccc(Cl)cc1)C1=NN(c2ccc(Cl)cc2Cl)C(c2ccccc2)C1 (stereo not given)	37	1	248	> 30
CN/C(=N\S(=O)(=O)N1CCC(F)(F)CC1)C1=NN(c2ccc(Cl)cc2)[C@@H](c2ccccc2)C1	9.2	1.58	> 1000	5
CN/C(=N\S(=O)(=O)c1ccc(F)cc1)C1=NN(c2ccc(Cl)cc2)C(c2ccccc2)C1 (stereo not given)	21.7	10	> 1000	30
CNC(=NS(=O)(=O)N1CCC(F)(F)CC1)N1C[C@@H](c2ccccc2)C(c2ccc(Cl)cc2)=N1	463	398	> 1000	> 30
CNC(=NS(=O)(=O)N1CCC(F)CC1)N1CC(c2ccccc2)C(c2ccc(Cl)cc2)=N1 (stereo not given)	7.5	1	> 1000	> 30
CN/C(=N\S(=O)(=O)N1CCC(F)CC1)C1=NN(c2ccc(Cl)cc2)C(c2ccccc2)C1 (stereo not given)	55	3.98	> 1000	> 30
CN/C(=N\S(=O)(=O)c1ccc(C(F)(F)F)cc1)C1=NN(c2ccc(Cl)cc2Cl)C(c2ccccc2)C1 (stereo not given)	11.3	2.51	179	> 30
CNC(=NS(=O)(=O)N1CCCCC1)C1=NN(c2ccc(Cl)cc2)C(c2ccccc2)C1 (stereo not given)	141	12.6	1090	> 30
CN/C(=N\S(=O)(=O)N1CCC(F)(F)CC1)C1=NN(c2ccc(Cl)cc2)[C@H](c2ccccc2)C1	280	> 200	> 1000	> 30
CNC(=NS(=O)(=O)N1CCC(F)(F)CC1)N1C[C@H](c2ccccc2)C(c2ccc(Cl)cc2)=N1	42	1	> 1000	6
CN/C(=N\S(=O)(=O)c1cccc(Cl)c1)C1=NN(c2ccc(Cl)cc2Cl)C(c2ccccc2)C1 (stereo not given)	53	5.01	330	> 30
CN/C(=N\S(=O)(=O)c1ccc(Cl)cc1)N1CC(c2ccccc2)C(c2ccc(Cl)cc2)=N1 (stereo not drawn) [RAC-IBIPINABANT]				15
CNC(=NS(=O)(=O)N1CCC(C(F)(F)F)CC1)C1=NN(c2ccc(Cl)cc2)[C@@H](c2ccccc2)C1	2		584	
CN/C(=N\S(=O)(=O)N1CCC(C(F)(F)F)CC1)N1CC(c2ccccc2)C(c2ccc(Cl)cc2)=N1 (stereo not given)	14.5	0.398	> 1000	
CN/C(=N\S(=O)(=O)N1CCC(F)(F)CC1)N1CC(c2ccccc2)C(c2ccc(Cl)cc2)=N1 (stereo not given)				23
CN/C(=N\S(=O)(=O)c1ccc(Cl)cc1)C1=NN(c2ccc(Cl)cc2)C(c2ccccc2)C1 (stereo not given)	84	3.98	> 1000	> 30
CNC(=NS(=O)(=O)N1CCC(C(F)(F)F)CC1)N1C[C@@H](c2ccccc2)C(c2ccc(Cl)cc2)=N1	140	50.1	> 1000	> 30
CN/C(=N\S(=O)(=O)N1CCCCC1)N1C[C@H](c2ccccc2)C(c2ccc(Cl)cc2)=N1				8
CN=C(NS(=O)(=O)N1CCC(F)(F)CC1)C1=NN(c2ccc(Cl)cc2)C(c2ccccc2)C1 (stereo not given)	38.8	0.794	> 1000	9
